Results from patent US20050058745A1, “Use of Labiatae herb preparations for extending the flavor shelf life of malt beverages” (priority 2003, published 2005).

How the values were obtained:
Assay type in all cases: physicochemical
[1] = HPLC cis/trans ratio of isohumulone in beer stored at 40° C.; details: for Cis/Trans Ratio of Isohumulone: 20 ppm of each constituent
Protocol: One case of bottles was opened, 20 ppm carnosic acid and 20 ppm rosmarinic acid in the form of a propylene glycol solution was added and the bottles fobbed and crowned according to the procedure detailed in Example 1. An additional case was opened, fobbed and crowned in the same manner, and designated “Control”. All bottles were put in a 40° C. temperature controlled hot room. Samples of the above beer were taken at 0 time, 7, 21, 35, 44 and 58 days for HPLC hop acid analysis by a modification of the method of Burroughs and Williams [1999]. Beer samples (100 mL) were gently poured into tall-form beakers to avoid excessive foaming. Octanol (1-2 drops) was added to minimize foam, and the beer was sparged with helium for 10-15 minutes to degas them. The degased beer was transferred to a 2 mL autosampler vial and assayed according to the method in the reference.
The level of trans declines faster than the level of cis isomers. The trans isomers in this example are 28% of the total hop acids.

[2] = DCIP redox potential of light beer during pasteurization; details: for preservation of redox potential during pasteurization: 20 ppm; for Redox Potential: +20 ppm
Protocol: Five bottles of a commercial light beer, 81 days old at the time of the experiment, but having been stored at 2° C. were used in this experiment. The following five treatments were prepared: • 1. An unpasteurized control was prepared by leaving one bottle unopened in the refrigerator until analysis. • 2. Another bottle was opened, 20 ppm carnosic acid was added from a solution made from pure material, and the bottle fobbed and crowned. This sample was also not pasteurized. • 3. A bottle was opened, fobbed to exclude air, and crowned. This sample is designated the No Addition Pasteurized Control. • 4. A bottle was opened and 20 ppm carnosic acid was added from a solution made from pure compound. The bottle was fobbed and crowned and subjected to pasteurization. • 5. A bottle was opened and 20 ppm of rosmarinic acid was added from a solution of pure compound. The bottle was fobbed and crowned and subjected to pasteurization. Treatments 3, 4, and 5 were immersed in an ambient temperature water bath and heated to 60° C. The approximate time to reach 60° C. from ambient was 12 minutes. The bottles remained at 60° C. for 12 minutes. They were then removed and cooled. All five treatments were analyzed by the DCIP-Redox method described in Example 4.

[3] = 3-Methylbutanal in headspace of aged beer; details: 20 ppm (RA + CA: 10 ppm each)
Protocol: The highly hopped beer from example 2 was treated with solutions of carnosic acid in ethanol, rosmarinic acid in ethanol or a mixture of carnosic acid and rosmarinic acid in ethanol as done previously. […] The bottles were fobbed to exclude air and crowned. • 3. “20 ppm CA+air” in which bottles were opened and 20 ppm CA added as above. These bottles received two puffs of air in the remaining headspace from a 25 mL bulb. They were crowned without fobbing • 4. “20 ppm RA” in which bottles were opened and 20 ppm rosmarinic acid added from a 2% solution. The bottles were fobbed and crowned. • 5. “20 ppm RA+air” which was done as in No. 4, with 20 ppm RA added. These bottles received the two puffs of air and were crowned without fobbing. • 6. “10 ppm RA+10 ppm CA” in which bottles were opened and 10 ppm each of carnosic and rosmarinic acids were added from pure solutions (178 μL of 2% solution per 12 oz bottle). Bottles were fobbed and crowned. • 7. “10 ppm RA+10 ppm CA+air” in which 10 ppm each of RA and CA was added. This treatment received two puffs of air and was not fobbed before closing. • 8. “Control+air” in which bottles were opened, given two puffs of air and crowned without fobbing. • 9. “Control” in which bottles were opened, fobbed and crowned. Treatments 2 through 9 were stored in a 40° C. hot room. At various times, bottles were opened and samples analyzed for phenylacetaldehyde and 3-methylbutanal by the method of “[…], et al. The results are shown in Table 19.

[4] = Haze formation in aged beer (Haze Meter); details: for Haze: 20 ppm (RA + CA: 10 ppm each); for effect on rate of haze formation: aged beer exposed to air
Protocol: The highly hopped beer from example 2 was treated with solutions of carnosic acid in ethanol, rosmarinic acid in ethanol or a mixture of carnosic acid and rosmarinic acid in ethanol as done previously. The preparations were: • 1. “Fresh”, in which the beer remained unopened and was stored in the cold room at 2-4° C. • 2. “20 ppm CA” in which bottles were opened and 20 ppm carnosic acid was added from a 2% solution of pure CA ([…] of the 2% solution). The bottles were fobbed to exclude air and crowned. • 3. “20 ppm CA+air” in which bottles were opened and 20 ppm CA added as above. These bottles received two puffs of air in the remaining headspace from a 25 mL bulb. They were crowned without fobbing • 4. “20 ppm RA” in which bottles were opened and 20 ppm rosmarinic acid added from a 2% solution. The bottles were fobbed and crowned. • 5. “20 ppm RA+air” which was done as in No. 4, with 20 ppm RA added. These bottles received the two puffs of air and were crowned without fobbing. • 6. “10 ppm RA+10 ppm CA” in which bottles were opened and 10 ppm each of carnosic and rosmarinic acids were added from pure solutions (178 μL of 2% solution per 12 oz bottle). Bottles were fobbed and crowned. • 7. “10 ppm RA+10 ppm CA+air” in which 10 ppm each of RA and CA was added. This treatment received two puffs of air and was not fobbed before closing. • 8. “Control+air” in which bottles were opened, given two puffs of air and crowned without fobbing. • 9. “Control” in which bottles were opened, fobbed and crowned.
The samples prepared in Example 18 were analyzed for haze in the following manner. A clean, dry, clear flint bottle was marked with a permanent mark on the neck for aligning the bottle the same way for each measurement. The bottle was filled with distilled water to the bottom of the neck and aligned in a Haze Meter with the alignment mark facing forward (Haze Meter, Type UKM1d, Radiometer Copenhagen) to zero the instrument. The bottle was emptied and then filled with a degassed beer sample to be tested and the haze was recorded in ASBC Formazin units.

[5] = pasteurized (60° C. for 12 minutes)

Row | Structure (SMILES) | preservation of redox potential during pasteurization [2] | Redox Potential [2, 5] | 3-Methylbutanal in the headspace of aged beer ([3]; Day 0, 40° C., + air) [Parts per million] | 3-Methylbutanal in the headspace of aged beer ([3]; Day 0, 40° C., no air) [Parts per million] | 3-Methylbutanal in the headspace of aged beer ([3]; Day 3, 40° C., + air) [Parts per million] | 3-Methylbutanal in the headspace of aged beer ([3]; Day 3, 40° C., no air) [Parts per million] | 3-Methylbutanal in the headspace of aged beer ([3]; Day 7, 40° C., + air) [Parts per million] | 3-Methylbutanal in the headspace of aged beer ([3]; Day 7, 40° C., no air) [Parts per million] | 3-Methylbutanal in the headspace of aged beer ([3]; Day 14, 40° C., + air) [Parts per million] | 3-Methylbutanal in the headspace of aged beer ([3]; Day 14, 40° C., no air) [Parts per million] | 3-Methylbutanal in the headspace of aged beer ([3]; Day 21, 40° C., + air) [Parts per million] | 3-Methylbutanal in the headspace of aged beer ([3]; Day 21, 40° C., no air) [Parts per million] | Haze ([4]; Day 0, 40° C., + air) [ASBC Formazin Units] | Haze ([4]; Day 0, 40° C., no air) [ASBC Formazin Units] | Haze ([4]; Day 3, 40° C., + air) [ASBC Formazin Units] | Haze ([4]; Day 3, 40° C., no air) [ASBC Formazin Units] | Haze ([4]; Day 7, 40° C., + air) [ASBC Formazin Units] | Haze ([4]; Day 7, 40° C., no air) [ASBC Formazin Units] | Haze ([4]; Day 14, 40° C., + air) [ASBC Formazin Units] | Haze ([4]; Day 14, 40° C., no air) [ASBC Formazin Units] | also measured
1 | CC(C)c1cc2c(c(O)c1O)[C@@]1(C(=O)O)CCCC(C)(C)[C@@H]1CC2 [CA, carnosic acid] | held at a higher level than the untreated, unpasteurized control | 45.0 | 3.44 | 3.24 | 3.85 | 3.13 | 3.68 | 2.98 | 3.45 | 1.82 | 5.09 | 4.66 | 40 | 40 | 45 | 30 | 50 | 35 | 80 | 45 | time up to which the cis/trans level was helped to be maintained ([1]; 20 ppm CA, 40° C.): about 35 days; Cis/Trans Ratio of Isohumulone ([1]; Day 0, 40° C.): 2.699; Cis/Trans Ratio of Isohumulone ([1]; Day 7, 40° C.): 2.850; Cis/Trans Ratio of Isohumulone ([1]; Day 21, 40° C.): 3.947; Cis/Trans Ratio of Isohumulone ([1]; Day 35, 40° C.): 5.450; Cis/Trans Ratio of Isohumulone ([1]; Day 44, 40° C.): 7.974; Cis/Trans Ratio of Isohumulone ([1]; Day 58, 40° C.): 9.863; Redox Potential ([2]; no pasteurization): 67.4; Haze ([4]; Day 21, 40° C., + air): 120 ASBC Formazin Units; Haze ([4]; Day 21, 40° C., no air): 75 ASBC Formazin Units; Haze ([4]; Day 35, 40° C., + air): 800 ASBC Formazin Units; Haze ([4]; Day 35, 40° C., no air): 110 ASBC Formazin Units; effect on rate of haze formation [4]: dramatic positive effect on reducing the rate of haze formation
2 | O=C(/C=C/c1ccc(O)c(O)c1)O[C@H](Cc1ccc(O)c(O)c1)C(=O)O [RA, rosmarinic acid] | no potential to preserve the redox potential of beer during pasteurization | 13.4 | 3.13 | 4.12 | 4.14 | 3.05 | 3.95 | 2.73 | 4.28 | 3.03 | 5.06 | 4.85 | 37 | 37 | 32 | 40 | 40 | 35 | 100 | 40 | Haze ([4]; Day 21, 40° C., + air): 175 ASBC Formazin Units; Haze ([4]; Day 21, 40° C., no air): 55 ASBC Formazin Units; Haze ([4]; Day 35, 40° C., + air): 800 ASBC Formazin Units; Haze ([4]; Day 35, 40° C., no air): 120 ASBC Formazin Units; effect on rate of haze formation [4]: dramatic positive effect on reducing the rate of haze formation
